Data on 19 compounds can be found in patent publication US8507472B2 (priority 2010, dated 2013).

Structures are written as SMILES. Read-outs that look alike come from different tables or passages of the source.

In general, inhibition refers to the change of the read-out against control, counted positive when it falls. For orientation: chromatographic logP means lipophilicity estimated from chromatographic retention. Higher therefore signals higher lipophilicity.

Data set [1] has as its system DON/AcDON production. Kind of data set: microbe, parasite or virus in culture. To be noted: 7 days at 28° C.; for inhibition at 50 µM: Fusarium graminearum, 168 h. It counts as cell-based, Fusarium graminearum.
Data set [2] deals with Fusarium graminearum. Put plainly: microbe, parasite or virus in culture. It counts as cell-based. To be noted: for inhibition at 50 µM: Fusarium graminearum, 72 h, read-out: % inhibition of the fungal growth of Fusarium graminearum at 50 μM.
Data set [3] has as its system Phytophthora infestans. It counts as in vivo.
Data set [4] concerns Alternaria solani. Kind of data set: Alternaria test (tomato)/protective. The format is in vivo. The procedure:
(§1) Solvent: 49 parts by weight of N,N-dimethylformamide
(§2) Emulsifier: 1 part by weight of alkylaryl polyglycol ether
To produce a suitable preparation of active compound, 1 part by weight of active compound is mixed with the stated amounts of solvent and emulsifier, and the concentrate is diluted with water to the desired concentration.
To test for protective activity, young tomato plants are sprayed with the active compound preparation at the stated application rate. 1 day after the treatment, the plants are inoculated with a spore suspension of Alternaria solani and then remain at 100% rel. humidity and 22° C. for 24 h. The plants then remain at 96% rel. atmospheric humidity and a temperature of 20° C.
(§3) Evaluation is carried out 7 days after the inoculation. 0% means an efficacy which corresponds to that of the control, whereas an efficacy of 100% means that no infection is observed.

Data set [5] concerns Pyrenophora teres. Kind of data set: Pyrenophora teres test (barley)/protective. The format is in vivo. The procedure: as §1, §2
(§4) To produce a suitable preparation of active compounds, 1 part by weight of active compound is mixed with the stated amounts of solvent and emulsifier, and the concentrate is diluted with water to the desired concentration.
To test for protective activity, young barley plants are sprayed with the active compound preparation at the stated application rate. 1 day after the treatment, the plants are inoculated with an aqueous spore suspension of Pyrenophora teres and then remain at 100% rel. atmospheric humidity and 22° C. for 48 h. The plants are then placed in a greenhouse at 80% rel. atmospheric humidity and a temperature of 20° C.
(§5) Evaluation is carried out 7-9 days after the inoculation. 0% means an efficacy which corresponds to that of the control, whereas an efficacy of 100% means that no infection is observed.

Data set [6] concerns Leptosphaeria nodorum. Put plainly: Leptosphaeria nodorum test (wheat)/protective. The format is in vivo. As for the experimental part: as §1, §2, §4
To test for protective activity, young wheat plants are sprayed with the active compound preparation at the stated application rate. 1 day after the treatment, the plants are inoculated with an aqueous spore suspension of Leptosphaeria nodorum and then remain at 100% rel. atmospheric humidity and 22° C. for 48 h. The plants are then placed in a greenhouse at 90% rel. atmospheric humidity and a temperature of 22° C.
as §5

Data set [7] is described as follows: log P determination by HPLC retention times (alkan-2-one calibration).
The test system of data set [8] is Sphaerotheca fuliginea. Kind of data set: Sphaerotheca test (cucumber)/protective. It counts as in vivo. To be noted: in vivo. As for the experimental part: as §1, §2, §4
To test for protective activity, young cucumber plants are sprayed with the active compound preparation at the stated application rate. 1 day after the treatment, the plants are inoculated with a spore suspension of Sphaerotheca fuliginea. The plants are then placed in a greenhouse at 70% rel. atmospheric humidity and a temperature of 23° C.
as §3

The mark [9] stands for this setting: 500 ppm active compound, barley, protective, evaluation 7-9 days after inoculation.
The mark [10] stands for this setting: log P(HCOOH), HCOOH, preparation examples in the text.
[11] abbreviates: log P, values marked [b] in Table 1.
The mark [12] stands for this setting: 500 ppm active compound, tomato, protective, evaluation 7 days after inoculation.

Consider `CC(C)(C)OC(=O)Nc1cc(-c2c(-c3ccc(F)cc3)nn3c2CCCC3)ccn1` [Example 16], for which, in data set [1], the “% inhibition of DON/AcDON at 50 μM” value is recorded as 93%. For the same compound, the “% inhibition of the fungal growth of Fusarium graminearum at 50 μM” value (from here on “% inhibition of the fungal growth … at 50 μM”) in data set [2] was determined as 0%.

As to `CC(C)Nc1cc(-c2c(-c3cccc(F)c3)nn3c2CCC3)ccn1` [Example 56], the efficacy in % in data set [3] (in vivo) is given as 80%. Further, the “% inhibition of DON/AcDON at 50 μM” value in data set [1] turned out to be 92%. Further, the “% inhibition of the fungal growth … at 50 μM” value in data set [2] came to 27%.

Regarding `Fc1ccc(-c2nn3c(c2-c2ccnc(F)c2)CCC3)cc1` [Example 45], the efficacy in % in data set [4] (in vivo) came out at 95%; in data set [3] (in vivo) it was 90%; in data set [5] (in vivo), 95%. In addition, in data set [1], the “% inhibition of DON/AcDON at 50 μM” value is 100%. Further, the “% inhibition of the fungal growth … at 50 μM” value in data set [2] was 21%.

For `Fc1cc(-c2c(-c3ccc(Cl)cc3)nn3c2CCC3)ccn1` [Example 13], the efficacy in % in data set [5] (in vivo) was found to be 80%. In addition, the “% inhibition of DON/AcDON at 50 μM” value in data set [1] worked out at 96%. Besides, the “% inhibition of the fungal growth … at 50 μM” value in data set [2] was found to be 17%.

Consider `Nc1cc(-c2c(-c3ccccc3)nn3c2CCCC3)ccn1` [Example 14], for which the efficacy in % in data set [3] (in vivo) came out at 70%. Further, the “% inhibition of DON/AcDON at 50 μM” value in data set [1] was determined as 93%. Also, the “% inhibition of the fungal growth … at 50 μM” value in data set [2] came out at 24%.

Regarding `Fc1cccc(-c2nn3c(c2-c2ccncc2)CCC3)c1` [Example 44], the figures for the efficacy in % in data set [4] (in vivo), in data set [3] (in vivo) and in data set [5] (in vivo) were 80%, 70% and 90%, respectively. The “% inhibition of DON/AcDON at 50 μM” value in data set [1] is on record as 100%. Moreover, the “% inhibition of the fungal growth … at 50 μM” value in data set [2] was found to be 61%.

On to `Fc1cccc(-c2nn3c(c2-c2ccnc(F)c2)CCC3)c1` [Example 54], for which the efficacy in % in data set [4] (in vivo) amounted to 80%. The “% inhibition of DON/AcDON at 50 μM” value in data set [1] is listed as 100%. For the same compound, the “% inhibition of the fungal growth … at 50 μM” value in data set [2] was 0%.

On to `c1csc(-c2nn3c(c2-c2ccncc2)CCCC3)c1` [Example 62], for which the efficacy in % in data set [4] (in vivo) was found to be 94%; in data set [6] (in vivo), 78%; in data set [3] (in vivo), 80%; in data set [5] (in vivo), 95%. Also, in data set [1], the “% inhibition of DON/AcDON at 50 μM” value is on record as 100%. Besides, in data set [2], the “% inhibition of the fungal growth … at 50 μM” value is 35%.

In the case of `c1cc(-c2c(-c3ccsc3)nn3c2CCC3)ccn1` [Example 46], the efficacy in % in data set [4] (in vivo), in data set [3] (in vivo) and in data set [5] (in vivo) was 70% throughout. Moreover, the “% inhibition of DON/AcDON at 50 μM” value in data set [1] is 100%. The “% inhibition of the fungal growth … at 50 μM” value in data set [2] stood at 52%.

Consider `Fc1cc(-c2c(-c3ccccc3)nn3c2CCC3)ccn1` [Example 61, 3-(2-Fluoropyridin-4-yl)-2-phenyl-5,6-dihydro-4H-pyrrolo[1,2-b]pyrazole], for which, in data set [5] (setting [9]), the efficacy in % turned out to be 70%. In addition, the inhibition at 50 µM in data set [1] is 100%; in data set [2], 0%. The chromatographic logP in data set [7] (setting [10]) and in data set [7] (setting [11]) was 2.53 throughout.

With `FC(F)(F)c1cccc(-c2nn3c(c2-c2ccncc2)CCC3)c1` [Example 42], the “% inhibition of DON/AcDON at 50 μM” value in data set [1] turned out to be 98%. The “% inhibition of the fungal growth … at 50 μM” value in data set [2] stood at 100%.

As for `c1ccc(-c2nn3c(c2-c2ccncc2)CCC3)cc1` [Example 10], the efficacy in % in data set [4] (in vivo) worked out at 70%; in data set [6] (in vivo) it was 80%; in data set [3] (in vivo) it was 70%; in data set [5] (in vivo), 80%; in data set [8], 94%. Moreover, the “% inhibition of DON/AcDON at 50 μM” value in data set [1] came out at 100%. Further, the “% inhibition of the fungal growth … at 50 μM” value in data set [2] is listed as 87%.

For the compound `Cc1ccc(-c2nn3c(c2-c2ccncc2)CCC3)cc1` [Example 41], the efficacy in % in data set [4] (in vivo) worked out at 70%; in data set [3] (in vivo) it was 70%; in data set [5] (in vivo), 95%. Further, the “% inhibition of DON/AcDON at 50 μM” value in data set [1] is 98%. The “% inhibition of the fungal growth … at 50 μM” value in data set [2] is given as 100%.

Regarding `C[C@@H](O)C(=O)Nc1cc(-c2c(-c3ccsc3)nn3c2CCCC3)ccn1` [Example 66], the efficacy in % in data set [4] (in vivo) is 70%; in data set [3] (in vivo) it was 80%; in data set [5] (in vivo), 95%. The “% inhibition of DON/AcDON at 50 μM” value in data set [1] is recorded as 98%. Moreover, the “% inhibition of the fungal growth … at 50 μM” value in data set [2] worked out at 50%.

On to `Clc1ccc(-c2nn3c(c2-c2ccncc2)CCC3)cc1` [Example 11], for which the efficacy in % stood at 70% in data set [6] (in vivo), 80% in data set [3] (in vivo), 70% in data set [5] (in vivo) and 88% in data set [8]. In addition, in data set [1], the “% inhibition of DON/AcDON at 50 μM” value worked out at 100%. Also, the “% inhibition of the fungal growth … at 50 μM” value in data set [2] is given as 92%.

For the compound `Nc1cc(-c2c(-c3ccc(F)cc3)nn3c2CCCC3)ccn1` [Example 3, 4-[2-(4-Fluorophenyl)-4,5,6,7-tetrahydropyrazolo[1,5-a]pyridin-3-yl]pyridine-2-amine], the efficacy in % in data set [4] (setting [12]) is given as 95%; in data set [6] (500 ppm active compound, wheat, protective, evaluation 7-9 days after inoculation), 89%; in data set [3] (setting [12]), 90%; in data set [5] (setting [9]) it was 95%. In addition, the results for the inhibition at 50 µM in data set [1] and in data set [2] were 94% and 30%, respectively. In addition, the chromatographic logP came to 1.21 in data set [7] (setting [10]); 1.21 in data set [7] (log P, values marked [a] in Table 1); 2.05 in data set [7] (setting [11]).

Regarding `Cc1cc(-c2c(-c3ccc(F)cc3)nn3c2CCCC3)ccn1` [Example 6], the efficacy in % in data set [4] (in vivo) is listed as 95%; in data set [6] (in vivo), 70%; in data set [5] (in vivo), 70%. In data set [1], the “% inhibition of DON/AcDON at 50 μM” value was 99%. In addition, in data set [2], the “% inhibition of the fungal growth … at 50 μM” value was 70%. Moreover, the “log P” value in data set [7] (values marked [a] in Table 1) was 1.22^[a];; in data set [7] (values marked [b] in Table 1), 2.67^[b].

With `COCC(=O)Nc1cc(-c2c(-c3ccsc3)nn3c2CCCC3)ccn1` [Example 60], the efficacy in % was 78% in data set [6] (in vivo), 90% in data set [5] (in vivo) and 90% in data set [8]. The “% inhibition of DON/AcDON at 50 μM” value in data set [1] is 100%. The “% inhibition of the fungal growth … at 50 μM” value in data set [2] came to 100%.

On to `COC(=O)Nc1cc(-c2c(-c3ccsc3)nn3c2CCCC3)ccn1` [Example 67], for which the efficacy in % in data set [4] (in vivo) was found to be 80%; in data set [3] (in vivo), 70%; in data set [5] (in vivo) it was 95%. For the same compound, the “% inhibition of DON/AcDON at 50 μM” value in data set [1] is 100%. In addition, the “% inhibition of the fungal growth … at 50 μM” value in data set [2] stood at 60%.
